Assay results taken from US12187709B2 (Genentech, Inc., priority 2021, dated 2025).

Experiments:
Cbl-b = Cbl-b (Homo sapiens (Human), UniProt Q13191); assay: Cbl-b LCK Ub TR-FRET assay (Cbl-b Lck HTRF); format: biochemical; settings: for IC50: Cbl-b LCK Ub TR-FRET, Example 121; for (fold-selectivity) Cbl-b and C-Cbl Selectivity: ratio C-cbl Lck HTRF IC50 / Cbl-b Lck HTRF IC50
Method in brief: (§1)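 After the ubiquitination reaction, detection mixture was added and plates incubated 20 min at room temperature before reading. IC50 values were calculated with wells lacking LCK as the low control and DMSO as the high control.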

[1] = target: Human Cbl-b (residues 40-426) (Homo sapiens (Human), UniProt Q13191); assay: Cbl-b SPR assay; format: binding; settings: for Fold of selectivity: C-cbl SPR Kd vs Cbl-b SPR Kd; for Kd: SPR, 20° C.
Sequence of Human Cbl-b (residues 40-426) (Q13191 40-426): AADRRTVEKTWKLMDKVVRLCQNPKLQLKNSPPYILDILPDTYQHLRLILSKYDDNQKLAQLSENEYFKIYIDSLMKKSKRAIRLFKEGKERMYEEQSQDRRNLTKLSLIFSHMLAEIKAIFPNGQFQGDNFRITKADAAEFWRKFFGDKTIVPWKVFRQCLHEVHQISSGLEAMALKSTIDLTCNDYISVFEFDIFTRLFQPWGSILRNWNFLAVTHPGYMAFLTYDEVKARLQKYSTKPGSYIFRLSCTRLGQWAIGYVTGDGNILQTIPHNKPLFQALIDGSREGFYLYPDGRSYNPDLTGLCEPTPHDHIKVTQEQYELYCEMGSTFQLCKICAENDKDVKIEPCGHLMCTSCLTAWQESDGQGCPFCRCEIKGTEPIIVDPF
Method in brief: (§2)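 Binding was measured by SPR and fitted to a 1:1 model from multi-cycle kinetics with double referencing, 6 concentrations in 2-fold dilution. Alternatively, single-cycle titrations up to 500 nM (120 s contact) were fitted with kd fixed from a single-exponential fit of chaser-measured % compound bound versus time.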

c-Cbl (residues 47-435) = c-Cbl (residues 47-435) (Homo sapiens (Human), UniProt P22681); assay: c-Cbl SPR assay; format: binding; settings: 20° C.
Sequence of c-Cbl (residues 47-435) (P22681 47-435): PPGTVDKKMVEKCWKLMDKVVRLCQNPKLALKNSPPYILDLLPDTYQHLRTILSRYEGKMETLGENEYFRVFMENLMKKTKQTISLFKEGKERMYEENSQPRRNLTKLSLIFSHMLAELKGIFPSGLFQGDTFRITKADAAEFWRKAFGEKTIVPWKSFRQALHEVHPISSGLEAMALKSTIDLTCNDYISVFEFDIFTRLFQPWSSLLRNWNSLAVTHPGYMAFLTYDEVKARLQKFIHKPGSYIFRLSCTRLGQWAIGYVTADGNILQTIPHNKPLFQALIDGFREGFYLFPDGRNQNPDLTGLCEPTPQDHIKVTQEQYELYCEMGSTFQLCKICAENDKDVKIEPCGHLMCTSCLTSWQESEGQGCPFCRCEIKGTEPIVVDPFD
Method in brief: as §2

c-Cbl = c-Cbl (Homo sapiens (Human), UniProt P22681); assay: C-Cbl LCK Ub TR-FRET assay (C-cbl Lck HTRF); format: biochemical
Sequence of c-Cbl (P22681 47-435): as above
Method in brief: as §1

Sequence of Cbl-b (Q13191 40-426): as the sequence (Q13191 40-426) above

IC50 (Cbl-b)	(fold-selectivity) Cbl-b and C-Cbl Selectivity (Cbl-b)	Fold of selectivity [1]	Kd [1]	Kd (c-Cbl (residues 47-435))	IC50 (c-Cbl)	Compound
13 nM	5.2x	14×	7.4 nM	110 nM	67 nM	CO[C@H]1C[C@](c2cccc(N3Cc4c(cc(CNC56CC(C5)C6)cc4C(F)(F)F)C3=O)c2)(c2nncn2C)C1 [Compound 485, 6-((bicyclo[1.1.1]pentan-1-ylamino)methyl)-2-(3-((1r,3r)-3-methoxy-1-(4-methyl-4H-1,2,4-triazol-3-yl)cyclobutyl)phenyl)-4-(trifluoromethyl)isoindolin-1-one]
18 nM	6.0x	11×	8.2 nM	98 nM	110 nM	CO[C@H]1C[C@](c2cccc(N3Cc4c(cc(CNCC5(F)CC5)cc4C(F)(F)F)C3=O)c2)(c2nncn2C)C1 [Compound 486, 6-((((1-fluorocyclopropyl)-methyl)amino)methyl)-2-(3-((1r,3r)-3-methoxy-1-(4-methyl-4H-1,2,4-triazol-3-yl)cyclobutyl)phenyl)-4-(trifluoromethyl)isoindolin-1-one]
19 nM	7.4x	41×	4.9 nM	210 nM	150 nM	COCC1(NCc2cc3c(c(C(F)(F)F)c2)CN(c2cccc([C@]4(c5nncn5C)C[C@H](OC)C4)c2)C3=O)CC1 [Compound 487, 2-(3-((1r,3r)-3-methoxy-1-(4-methyl-4H-1,2,4-triazol-3-yl)cyclobutyl)phenyl)-6-(((1-(methoxymethyl)cyclopropyl)amino)methyl)-4-(trifluoromethyl)isoindolin-1-one]
5.8 nM	2.4x	13×	1 nM	13 nM	14 nM	CO[C@H]1C[C@](c2cccc(N3Cc4c(cc(CNC5CC(C)(C)C5)cc4C(F)(F)F)C3=O)c2)(c2nncn2C)C1 [Compound 488, 6-(((3,3-dimethylcyclobutyl)amino)methyl)-2-(3-((1r,3r)-3-methoxy-1-(4-methyl-4H-1,2,4-triazol-3-yl)cyclobutyl)phenyl)-4-(trifluoromethyl)isoindolin-1-one]
14 nM	5.3x	7.8×	6.2 nM	48 nM	74 nM	CO[C@H]1C[C@](c2cccc(N3Cc4c(cc(CNCC5(CO)CCC5)cc4C(F)(F)F)C3=O)c2)(c2nncn2C)C1 [Compound 489, 6-((((1-(hydroxymethyl)cyclobutyl)methyl)amino)methyl)-2-(3-((1r,3r)-3-methoxy-1-(4-methyl-4H-1,2,4-triazol-3-yl)cyclobutyl)phenyl)-4-(trifluoromethyl)isoindolin-1-one]
55 nM	5.0 x	14×	32 nM	480 nM	270 nM	CO[C@H]1C[C@](c2cccc(N3Cc4c(cc(CN5CCCCCC5)cc4C(F)(F)F)C3=O)c2)(c2nncn2C)C1 [Compound 490, 6-(azepan-1-ylmethyl)-2-(3-((1r,3r)-3-methxoy-1-(4-methyl-4H-1,2,4-triazol-3-yl)cyclobutyl)phenyl)-4-(trifluoromethyl)isoindolin-1-one]
8.4 nM	4.3x	17×	2.9 nM	48 nM	36 nM	CO[C@H]1C[C@](c2cccc(N3Cc4c(cc(CNCCOC(F)F)cc4C(F)(F)F)C3=O)c2)(c2nncn2C)C1 [Compound 491, 6-(((2-(difluoromethoxy)ethyl)amino)methyl)-2-(3-((1r,3r)-3-methoxy-1-(4-methyl-4H-1,2,4-triazol-3-yl)cyclobutyl)phenyl)-4-(trifluoromethyl)isoindolin-1-one]
14 nM	6.2x	15×	12 nM	180 nM	87 nM	CO[C@H]1C[C@](c2cccc(N3Cc4c(cc(CN[C@H]5[C@@H]6COC[C@@H]65)cc4C(F)(F)F)C3=O)c2)(c2nncn2C)C1 [Compound 492, 6-(((1R,5S,6r)-3-oxabicyclo[3.1.0]hexan-6-ylamino)methyl)-2-(3-((1r,3R)-3-methoxy-1-(4-methyl-4H-1,2,4-triazol-3-yl)cyclobutyl)phenyl)-4-(trifluoromethyl)isoindolin-1-one]
28 nM	8.5x	7.8×	18 nM	140 nM	230 nM	COCCC1(NCc2cc3c(c(C(F)(F)F)c2)CN(c2cccc([C@]4(c5nncn5C)C[C@H](OC)C4)c2)C3=O)CCC1 [Compound 493, 2-(3-((1r,3r)-3-methoxy-1-(4-methyl-4H-1,2,4-triazol-3-yl)cyclobutyl)phenyl)-6-(((1-(2-methoxyethyl)cyclobutyl)amino)methyl)-4-(trifluoromethyl)isoindolin-1-one]
8.3 nM	3.1x	11×	1.8 nM	20 nM	25 nM	CO[C@H]1C[C@](c2cccc(N3Cc4c(cc(CNC5CC(C(F)F)C5)cc4C(F)(F)F)C3=O)c2)(c2nncn2C)C1 (stereo partly drawn) [Compound 494, 6-(((3-(difluoromethyl)cyclobutyl)amino)methyl)-2-(3-((1r,3r)-3-methoxy-1-(4-methyl-4H-1,2,4-triazol-3-yl)cyclobutyl)phenyl)-4-(trifluoromethyl)isoindolin-1-one]
18 nM	6.7x	12×	8.5 nM	110 nM	110 nM	COCC1(NCc2cc3c(c(C(F)(F)F)c2)CN(c2cccc([C@]4(c5nncn5C)C[C@H](OC)C4)c2)C3=O)CCC1 [Compound 495, 2-(3-((1r,3r)-3-methoxy-1-(4-methyl-4H-1,2,4-triazol-3-yl)cyclobutyl)phenyl)-6-(((1-(methoxymethyl)cyclobutyl)amino)methyl)-4-(trifluoromethyl)isoindolin-1-one]
17 nM	5.2x	12×	6.1 nM	73 nM	87 nM	CO[C@H]1C[C@](c2cccc(N3Cc4c(cc(CNCC5(CF)CC5)cc4C(F)(F)F)C3=O)c2)(c2nncn2C)C1 [Compound 496, 6-((((1-(fluoromethyl)cyclopropyl)methyl)amino)meth-yl)-2-(3-((1r,3r)-3-methoxy-1-(4-methyl-4H-1,2,4-triazol-3-yl)cyclobutyl)phenyl)-4-(trifluoromethyl)isoindolin-1-one]
5.2 nM	4.7x	14×	1.9 nM	26.6 nM	24 nM	CO[C@H]1C[C@](c2cccc(N3Cc4c(cc(CNC5CC(C)(F)C5)cc4C(F)(F)F)C3=O)c2)(c2nncn2C)C1 (stereo partly drawn) [Compound 497, 6-(((3-fluoro-3-methylcyclobutyl)amino)methyl)-2-(3-((1r,3r)-3-methoxy-1-(4-methyl-4H-1,2,4-triazol-3-yl)cyclobutyl)phenyl)-4-(trifluoromethyl)isoindolin-1-one]
4.1 nM	3.6x	16×	0.8 nM	13 nM	15 nM	CO[C@H]1C[C@](c2cccc(N3Cc4c(cc(CNC5CC6CC6C5)cc4C(F)(F)F)C3=O)c2)(c2nncn2C)C1 (stereo partly drawn) [Compound 498, 6-((bicyclo[3.1.0]hexan-3-ylamino)methyl)-2-(3-((1r,3r)-3-methoxy-1-(4-methyl-4H-1,2,4-triazol-3-yl)cyclobutyl)phenyl)-4-(trifluoromethyl)isoindolin-1-one]
16 nM	5.0x	19×	3.7 nM	79 nM	78 nM	CO[C@H]1C[C@](c2cccc(N3Cc4c(cc(CNCCC5CCC5(F)F)cc4C(F)(F)F)C3=O)c2)(c2nncn2C)C1 (stereo partly drawn) [Compound 499, 6-(((2-(2,2-difluorocyclobutyl)ethyl)amino)methyl)-2-(3-((1r,3r)-3-methoxy-1-(4-methyl-4H-1,2,4-triazol-3-yl)cyclobutyl)phenyl)-4-(trifluoromethyl)isoindolin-1-one]
16 nM	5.3x	12×	10 nM	120 nM	85 nM	CO[C@H]1C[C@](c2cccc(N3Cc4c(cc(CNC5C[C@@H]6C[C@H]5CO6)cc4C(F)(F)F)C3=O)c2)(c2nncn2C)C1 (stereo partly drawn) [Compound 500, 6-((2-oxabicyclo[2.2.1]heptan-5-ylamino)methyl)-2-(3-((1r,3r)-3-methoxy-1-(4-methyl-4H-1,2,4-triazol-3-y)cyclobutyl)phenyl)-4-(trifluoromethyl)isoindolin-1-one]
